Reference: ChEMBL document CHEMBL1201862, “PubChem BioAssay data set” (2004)
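Protocol summary: plate cells (96-well), add compound at 5 concentrations, incubate 48 h, interpolate endpoints linearly. At the GI50, growth is halved.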 Calls of active or inactive are those of the source. Rule as the data show it: active = GI50 up to about 1.1 µM and inactive = higher.

Columns and labels:
Assay in all cases: inhibition of tumour cell growth, NCI panel, 48 h
SNB-75 = system: SNB-75
SK-MEL-5 = system: SK-MEL-5
SW-620 = system: SW-620
MDA-MB-231 = system: MDA-MB-231
NCI-H460 = system: NCI-H460
HCT-116 = system: HCT-116
SF-295 = system: SF-295
ACHN = system: ACHN
UO-31 = system: UO-31
Hs-578T = system: Hs-578T
HOP-62 = system: HOP-62
HCT-15 = system: HCT-15
SN12C = system: SN12C
MCF7 = system: MCF7
SF-539 = system: SF-539
SNB-19 = system: SNB-19
HCC 2998 = system: HCC 2998
A498 = system: A498
CAKI-1 = system: CAKI-1
SR = system: SR

SMILES | GI50 (SNB-75) | GI50 (SK-MEL-5) | GI50 (SW-620) | GI50 (MDA-MB-231) | GI50 (NCI-H460) | GI50 (HCT-116) | GI50 (SF-295) | GI50 (ACHN) | GI50 (UO-31) | GI50 (Hs-578T) | GI50 (HOP-62) | GI50 (HCT-15) | GI50 (SN12C) | GI50 (MCF7) | GI50 (SF-539) | GI50 (SNB-19) | GI50 (HCC 2998) | GI50 (A498) | GI50 (CAKI-1) | GI50 (SR)
CC(C)(C)c1cc(/C=C/C(=O)CC(=O)/C=C/c2cc(C(C)(C)C)c(O)c(C(C)(C)C)c2)cc(C(C)(C)C)c1O | > 50 µM (inactive) | > 50 µM (inactive) | > 50 µM (inactive) | > 50 µM (inactive) | > 50 µM (inactive) | > 50 µM (inactive) | > 50 µM (inactive) | > 50 µM (inactive) | > 50 µM (inactive) | > 50 µM (inactive) | > 50 µM (inactive) | > 50 µM | > 50 µM (inactive) | > 50 µM (inactive) | > 50 µM (inactive) | > 50 µM (inactive) | – | – | – | –
NC(=O)c1ccc(NS(=O)(=O)c2ccc(N)cc2)nc1 | > 100 µM (inactive) | > 100 µM (inactive) | > 100 µM (inactive) | > 100 µM (inactive) | > 100 µM (inactive) | > 100 µM (inactive) | > 100 µM (inactive) | > 100 µM (inactive) | > 100 µM (inactive) | > 100 µM (inactive) | > 100 µM (inactive) | > 100 µM | > 100 µM (inactive) | > 100 µM (inactive) | – | > 100 µM (inactive) | > 100 µM (inactive) | > 100 µM (inactive) | > 100 µM (inactive) | –
N#Cc1cc(-c2nc3cc(F)ccc3s2)ccc1N | 1.59 µM (inactive) | – | > 100 µM (inactive) | 8.83 µM (inactive) | < 0.0226 µM (active) | 9.51 µM (inactive) | 20.4 µM (inactive) | 1.36 µM (inactive) | 42 µM (inactive) | 15.8 µM (inactive) | 15.3 µM (inactive) | 0.384 µM | > 100 µM (inactive) | < 0.01 µM (active) | 13.3 µM (inactive) | 18.2 µM (inactive) | < 0.01 µM (active) | 3.39 µM (inactive) | > 38.7 µM (inactive) | –
NC(=O)Nc1c(Cl)cc(S(N)(=O)=O)cc1Cl | > 100 µM (inactive) | > 100 µM (inactive) | > 100 µM (inactive) | > 100 µM (inactive) | – | > 100 µM (inactive) | > 100 µM (inactive) | – | > 100 µM (inactive) | > 100 µM (inactive) | > 100 µM (inactive) | > 100 µM | > 100 µM (inactive) | > 100 µM (inactive) | > 100 µM (inactive) | > 100 µM (inactive) | – | – | > 100 µM (inactive) | –
COC(=O)/C=C(\C)C(=O)N(C)c1ccccc1I | 76.9 µM (inactive) | > 100 µM (inactive) | > 100 µM (inactive) | > 100 µM (inactive) | > 100 µM (inactive) | > 100 µM (inactive) | > 100 µM (inactive) | > 100 µM (inactive) | > 100 µM (inactive) | – | > 100 µM (inactive) | > 100 µM | > 100 µM (inactive) | > 100 µM (inactive) | – | > 100 µM (inactive) | > 100 µM (inactive) | > 100 µM (inactive) | 72.1 µM (inactive) | 94 µM (inactive)
N#CCSc1c(-c2ccccc2)c(=O)n(-c2ccccc2)c(=S)n1-c1ccccc1 | 20.1 µM (inactive) | 84.5 µM (inactive) | > 100 µM (inactive) | – | > 100 µM (inactive) | > 100 µM (inactive) | > 100 µM (inactive) | > 100 µM (inactive) | > 100 µM (inactive) | 51.5 µM (inactive) | > 100 µM (inactive) | > 100 µM | > 100 µM (inactive) | > 100 µM (inactive) | – | > 100 µM (inactive) | – | – | > 100 µM (inactive) | > 100 µM (inactive)
CS(=O)(=O)O[C@H]1CN2C[C@@H](O)[C@@H](O)[C@H]2[C@H]1CO.[B] | – | > 100 µM (inactive) | > 100 µM (inactive) | > 100 µM (inactive) | > 100 µM (inactive) | > 100 µM (inactive) | > 100 µM (inactive) | > 100 µM (inactive) | > 100 µM (inactive) | – | > 100 µM (inactive) | > 100 µM | – | > 100 µM (inactive) | > 100 µM (inactive) | > 100 µM (inactive) | > 100 µM (inactive) | > 100 µM (inactive) | > 100 µM (inactive) | > 100 µM (inactive)
COC(=O)[C@@H]1CN(C(C)=O)C(=O)N1 | > 100 µM (inactive) | > 100 µM (inactive) | > 100 µM (inactive) | 5.06 µM (inactive) | > 100 µM (inactive) | > 100 µM (inactive) | > 100 µM (inactive) | > 100 µM (inactive) | > 100 µM (inactive) | > 100 µM (inactive) | > 100 µM (inactive) | > 100 µM | > 100 µM (inactive) | – | > 100 µM (inactive) | > 100 µM (inactive) | > 100 µM (inactive) | > 100 µM (inactive) | > 100 µM (inactive) | –
N#CC(=S)Nc1ccc(Cl)c(Cl)c1 | 21.7 µM (inactive) | 22.2 µM (inactive) | 27 µM (inactive) | 26.7 µM (inactive) | – | 28.8 µM (inactive) | 22.5 µM (inactive) | 33.3 µM (inactive) | – | – | 44 µM (inactive) | 27.2 µM | 30.5 µM (inactive) | 35.5 µM (inactive) | 20.7 µM (inactive) | 43.8 µM (inactive) | 18.7 µM (inactive) | 32.7 µM (inactive) | 29.8 µM (inactive) | 21.7 µM (inactive)
O=c1c2ccccc2[nH]c2c(Cl)cc(Cl)c(N3CCCCC3)c12 | 30.1 µM (inactive) | 34.3 µM (inactive) | 35.4 µM (inactive) | 33.6 µM (inactive) | – | 46.3 µM (inactive) | 32.4 µM (inactive) | 23 µM (inactive) | 20 µM (inactive) | – | 34 µM (inactive) | 44.8 µM | 22.1 µM (inactive) | 20.7 µM (inactive) | 21.9 µM (inactive) | 34.6 µM (inactive) | 31.9 µM (inactive) | 28.3 µM (inactive) | 30.5 µM (inactive) | 36.5 µM (inactive)
CSc1nc(Nc2ccccc2Cl)c2c(N)nn(C)c2n1 | > 10 µM (inactive) | > 100 µM (inactive) | > 100 µM (inactive) | 28.3 µM (inactive) | 9.51 µM (inactive) | > 100 µM (inactive) | > 100 µM (inactive) | 13.1 µM (inactive) | > 100 µM (inactive) | 17 µM (inactive) | 27 µM (inactive) | > 100 µM | > 100 µM (inactive) | – | – | > 100 µM (inactive) | > 100 µM (inactive) | > 100 µM (inactive) | > 100 µM (inactive) | –
CC(C)CNc1nc(N)nc(O)c1NC=O | > 100 µM (inactive) | > 100 µM (inactive) | > 100 µM (inactive) | > 100 µM (inactive) | > 100 µM (inactive) | > 100 µM (inactive) | > 100 µM (inactive) | > 100 µM (inactive) | > 100 µM (inactive) | > 100 µM (inactive) | > 100 µM (inactive) | > 100 µM | > 100 µM (inactive) | > 100 µM (inactive) | > 100 µM (inactive) | > 100 µM (inactive) | > 100 µM (inactive) | > 100 µM (inactive) | > 100 µM (inactive) | –
C[C@@H]1OC(=O)C[C@H]2CC(=O)N(CCC3CN(S(=O)(=O)C(F)(F)F)c4ccc(Cc5ccc6c(c5)C(CCN5C[C@H]7[C@@H](CC(=O)O[C@H]7C)CC5=O)CN6S(=O)(=O)C(F)(F)F)cc43)C[C@@H]21 (some centres undefined) | > 100 µM (inactive) | > 100 µM (inactive) | > 100 µM (inactive) | > 100 µM (inactive) | > 100 µM (inactive) | > 100 µM (inactive) | > 100 µM (inactive) | > 100 µM (inactive) | > 100 µM (inactive) | – | > 100 µM (inactive) | > 100 µM | – | > 100 µM (inactive) | < 0.01 µM (active) | > 100 µM (inactive) | > 100 µM (inactive) | > 100 µM (inactive) | > 100 µM (inactive) | –
N#Cc1nc(C(=O)c2ccccc2)oc1N | 0.052 µM (active) | > 100 µM (inactive) | > 100 µM (inactive) | > 100 µM (inactive) | – | > 100 µM (inactive) | – | > 100 µM (inactive) | – | 20.9 µM (inactive) | > 100 µM (inactive) | > 100 µM | > 100 µM (inactive) | > 100 µM (inactive) | – | > 100 µM (inactive) | – | > 100 µM (inactive) | > 100 µM (inactive) | –
COc1cc(COC(=O)N2CC=CC2C(=O)O)c([N+](=O)[O-])cc1OC (centres undefined) | > 100 µM (inactive) | > 100 µM (inactive) | > 100 µM (inactive) | – | > 100 µM (inactive) | > 100 µM (inactive) | > 100 µM (inactive) | > 100 µM (inactive) | > 100 µM (inactive) | > 100 µM (inactive) | > 100 µM (inactive) | > 100 µM | > 100 µM (inactive) | > 100 µM (inactive) | > 100 µM (inactive) | > 100 µM (inactive) | > 100 µM (inactive) | > 100 µM (inactive) | – | > 100 µM (inactive)
Cc1cc(NC(=O)NC(=O)c2ccccc2[N+](=O)[O-])ccc1Oc1ncc(Cl)cn1 | 0.0456 µM (active) | 0.0362 µM (active) | 0.0501 µM (active) | 0.664 µM (active) | 0.0548 µM (active) | 0.082 µM (active) | 0.0598 µM (active) | 1.88 µM (inactive) | 0.0889 µM (active) | 0.0257 µM (active) | 0.0581 µM (active) | 0.113 µM | 0.492 µM (active) | 0.037 µM (active) | 0.0883 µM (active) | 0.212 µM (active) | 0.146 µM (active) | 0.0604 µM (active) | – | –
